From ChEMBL document CHEMBL5113522, “Discovery of CH7057288 as an Orally Bioavailable, Selective, and Potent pan-TRK Inhibitor” (J Med Chem, 2022)

What was measured:
[1] = target: Protein kinase C alpha type (Homo sapiens, UniProt P17252); experiment: Inhibition of PKCalpha (unknown origin)
[2] = target: Fibroblast growth factor receptor 2 (Homo sapiens, UniProt P21802); experiment: Inhibition of FGFR2 (unknown origin)
[3] = Half life in Beagle dog at 1 mg/kg, po by LC-MS analysis; type: ADME, organism-based, Canis lupus familiaris; details: in vivo
[4] = target: cAMP-dependent protein kinase (PKA) (Homo sapiens, UniProt P22694+P17612+P22612); experiment: Inhibition of PKA (unknown origin); type: protein assay
[5] = Oral bioavailability in Wistar Hannover rat at 1 mg/kg by LC-MS analysis; type: ADME, organism-based; details: in vivo
[6] = target: Tyrosine-protein kinase JAK2 (Homo sapiens, UniProt O60674); experiment: Inhibition of JAK2 (unknown origin)
NIH3T3 [7] = experiment: Antitumor activity against mouse NIH3T3 cells implanted in mouse assessed as tumor regression at 10 mg/kg, po administered once daily for 11 days and measured on day 12 relative to control; type: functional; details: time 12 day
[8] = target: Tyrosine-protein kinase Lck (Homo sapiens, UniProt P06239); experiment: Inhibition of LCK (unknown origin)
[9] = target: BDNF/NT-3 growth factors receptor (Homo sapiens, UniProt Q16620); experiment: Inhibition of TRKB (unknown origin)
[10] = target: RAC-alpha serine/threonine-protein kinase (Homo sapiens, UniProt P31749); experiment: Inhibition of AKT1 (unknown origin)
NIH3T3 [11] = experiment: Antitumor activity against mouse NIH3T3 cells implanted in mouse assessed as tumor growth inhibition at 0.16 mg/kg, po administered once daily for 11 days and measured on day 12 relative to control; type: functional; details: NIH3T3, 288 h, time 12 day, read-out: TGI
[12] = target: Receptor tyrosine-protein kinase erbB-2 (Homo sapiens, UniProt P04626); experiment: Inhibition of HER2 (unknown origin)
[13] = target: High affinity nerve growth factor receptor (Homo sapiens, UniProt P04629); experiment: Inhibition of TRKA (unknown origin)
[14] = Antitumor activity against human CUTO-3 cells xenografted in mouse assessed as tumor growth inhibition at 10 mg/kg, po administered once daily for 11 days and measured on day 12 relative to control; type: functional; details: CUTO-3, 288 h, time 12 day, read-out: TGI
[15] = target: Hepatocyte growth factor receptor (Homo sapiens, UniProt P08581); experiment: Inhibition of MET (unknown origin)
[16] = Toxicity in mouse assessed as body weight loss at 10 mg/kg, po administered once daily for 11 days and measured on day 12; type: organism-based; details: in vivo, 288 h, time 12 day
[17] = AUC in Wistar Hannover rat at 1 mg/kg, po by LC-MS analysis; type: ADME, organism-based; set-up: dose 1 mg/kg, route po; details: in vivo
[18] = target: NT-3 growth factor receptor (Homo sapiens, UniProt Q16288); experiment: Inhibition of TRKC (unknown origin)
[19] = Half life in Beagle dog at 1 mg/kg, iv by LC-MS analysis; type: ADME, organism-based, Canis lupus familiaris; details: in vivo
[20] = target: Epidermal growth factor receptor (Homo sapiens, UniProt P00533); experiment: Inhibition of EGFR (unknown origin)
[21] = target: RAF proto-oncogene serine/threonine-protein kinase (Homo sapiens, UniProt P04049); experiment: Inhibition of RAF1 (unknown origin)
[22] = Cmax in Wistar Hannover rat at 1 mg/kg, po by LC-MS analysis; type: ADME, organism-based; set-up: dose 1 mg/kg, route po; details: in vivo
[23] = Volume of distribution at steady state in Wistar Hannover rat at 1 mg/kg, iv by LC-MS analysis; type: ADME, organism-based; details: in vivo, read-out: Vdss
CYP3A4 = CYP3A4 (Homo sapiens, UniProt P08684); experiment: Induction of CYP3A4 in human hepatocytes assessed as fold induction at 1 uM using testosterone as substrate preincubated with replacement of fresh medium containing compound every 24 hrs for 72 hrs followed by substrate addition and measured after 1 hr by LC-MS/MS analysis relative to control; type: ADME, cell-based, Hepatocyte; details: probe testosterone, time 73 hrs, read-out: FC
[24] = AUC in Beagle dog at 1 mg/kg, po by LC-MS analysis; type: ADME, organism-based, Canis lupus familiaris; set-up: dose 1 mg/kg, route po; details: in vivo
[25] = Oral bioavailability in Beagle dog at 1 mg/kg by LC-MS analysis; type: ADME, organism-based, Canis lupus familiaris; details: in vivo
NIH3T3 [26] = experiment: Antitumor activity against mouse NIH3T3 cells implanted in mouse assessed as tumor growth inhibition at 0.63 mg/kg, po administered once daily for 11 days and measured on day 12 relative to control; type: functional; details: NIH3T3, 288 h, time 12 day, read-out: TGI
[27] = Half life in Wistar Hannover rat at 1 mg/kg, iv by LC-MS analysis; type: ADME, organism-based; details: in vivo
[28] = Volume of distribution at steady state in Beagle dog at 1 mg/kg, iv by LC-MS analysis; type: ADME, organism-based, Canis lupus familiaris; details: in vivo, read-out: Vdss
[29] = Cmax in Beagle dog at 1 mg/kg, po by LC-MS analysis; type: ADME, organism-based, Canis lupus familiaris; set-up: dose 1 mg/kg, route po; details: in vivo
[30] = Clearance in Wistar Hannover rat at 1 mg/kg, iv by LC-MS analysis; type: ADME, organism-based; details: in vivo
NIH3T3 [31] = experiment: Antiproliferative activity against […] NIH3T3 cells expressing MPRIP-NTRK1 assessed as cell growth inhibition incubated for 4 to 7 days by CellTiter-Glo Luminescent Cell Viability Assay; type: functional, cell-based; details: Mus musculus
[32] = target: ALK tyrosine kinase receptor (Homo sapiens, UniProt Q9UM73); experiment: Inhibition of ALK (unknown origin)
[33] = Clearance in Beagle dog at 1 mg/kg, iv by LC-MS analysis; type: ADME, organism-based, Canis lupus familiaris; details: in vivo
NIH3T3 [34] = experiment: Antitumor activity against mouse NIH3T3 cells implanted in mouse assessed as tumor growth inhibition at 10 mg/kg, po administered once daily for 11 days and measured on day 12 relative to control; type: functional; details: NIH3T3, 288 h, time 12 day, read-out: TGI
[35] = target: Proto-oncogene tyrosine-protein kinase Src (Homo sapiens, UniProt P12931); experiment: Inhibition of Src (unknown origin)
Insulin receptor = Insulin receptor (Homo sapiens, UniProt P06213); experiment: Inhibition of INSR (unknown origin)
NIH3T3 [36] = experiment: Antitumor activity against mouse NIH3T3 cells implanted in mouse assessed as tumor regression at 2.5 mg/kg, po administered once daily for 11 days and measured on day 12 relative to control; type: functional; details: time 12 day
[37] = target: Vascular endothelial growth factor receptor 2 (Homo sapiens, UniProt P35968); experiment: Inhibition of KDR (unknown origin)
[38] = Half life in Wistar Hannover rat at 1 mg/kg, po by LC-MS analysis; type: ADME, organism-based; details: in vivo
[39] = target: Serine/threonine-protein kinase Chk1 (Homo sapiens, UniProt O14757); experiment: Inhibition of CHK1 (unknown origin)
NIH3T3 [40] = experiment: Antitumor activity against mouse NIH3T3 cells implanted in mouse assessed as tumor growth inhibition at 2.5 mg/kg, po administered once daily for 11 days and measured on day 12 relative to control; type: functional; details: NIH3T3, 288 h, time 12 day, read-out: TGI
[41] = target: Cyclin-dependent kinase 1 (Homo sapiens, UniProt P06493); experiment: Inhibition of CDK1 (unknown origin)
Chain of Cyclin-dependent kinase 1 (P06493 whole entry): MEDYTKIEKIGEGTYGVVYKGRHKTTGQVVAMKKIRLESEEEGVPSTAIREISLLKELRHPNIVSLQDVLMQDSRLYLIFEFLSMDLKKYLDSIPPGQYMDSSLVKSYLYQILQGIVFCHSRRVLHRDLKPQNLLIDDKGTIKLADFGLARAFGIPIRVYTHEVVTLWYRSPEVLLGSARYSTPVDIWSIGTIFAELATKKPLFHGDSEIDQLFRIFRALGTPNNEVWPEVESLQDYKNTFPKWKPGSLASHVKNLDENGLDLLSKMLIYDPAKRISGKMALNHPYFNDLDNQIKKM

Chain of NT-3 growth factor receptor (Q16288 whole entry): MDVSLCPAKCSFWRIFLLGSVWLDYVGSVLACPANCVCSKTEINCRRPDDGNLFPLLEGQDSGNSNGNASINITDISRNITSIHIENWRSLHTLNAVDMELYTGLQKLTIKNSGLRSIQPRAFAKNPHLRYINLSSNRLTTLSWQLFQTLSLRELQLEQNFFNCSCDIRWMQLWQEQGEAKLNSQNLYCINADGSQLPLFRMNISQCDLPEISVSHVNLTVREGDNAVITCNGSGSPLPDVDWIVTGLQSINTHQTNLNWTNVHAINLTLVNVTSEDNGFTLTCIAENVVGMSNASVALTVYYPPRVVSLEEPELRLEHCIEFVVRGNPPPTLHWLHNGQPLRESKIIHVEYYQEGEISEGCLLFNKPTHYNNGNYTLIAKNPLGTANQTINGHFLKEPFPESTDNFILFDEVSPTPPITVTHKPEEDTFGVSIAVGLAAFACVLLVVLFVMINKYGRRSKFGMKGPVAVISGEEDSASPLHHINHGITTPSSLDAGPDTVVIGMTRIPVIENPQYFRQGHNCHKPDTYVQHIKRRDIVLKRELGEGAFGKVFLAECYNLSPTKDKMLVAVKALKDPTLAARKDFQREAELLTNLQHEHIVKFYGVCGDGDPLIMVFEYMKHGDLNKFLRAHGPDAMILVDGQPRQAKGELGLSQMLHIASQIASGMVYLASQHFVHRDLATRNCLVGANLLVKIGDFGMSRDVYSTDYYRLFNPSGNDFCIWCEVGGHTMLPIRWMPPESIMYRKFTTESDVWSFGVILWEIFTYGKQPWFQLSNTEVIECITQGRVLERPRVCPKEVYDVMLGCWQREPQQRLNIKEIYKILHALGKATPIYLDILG
Chain of BDNF/NT-3 growth factors receptor (Q16620 whole entry): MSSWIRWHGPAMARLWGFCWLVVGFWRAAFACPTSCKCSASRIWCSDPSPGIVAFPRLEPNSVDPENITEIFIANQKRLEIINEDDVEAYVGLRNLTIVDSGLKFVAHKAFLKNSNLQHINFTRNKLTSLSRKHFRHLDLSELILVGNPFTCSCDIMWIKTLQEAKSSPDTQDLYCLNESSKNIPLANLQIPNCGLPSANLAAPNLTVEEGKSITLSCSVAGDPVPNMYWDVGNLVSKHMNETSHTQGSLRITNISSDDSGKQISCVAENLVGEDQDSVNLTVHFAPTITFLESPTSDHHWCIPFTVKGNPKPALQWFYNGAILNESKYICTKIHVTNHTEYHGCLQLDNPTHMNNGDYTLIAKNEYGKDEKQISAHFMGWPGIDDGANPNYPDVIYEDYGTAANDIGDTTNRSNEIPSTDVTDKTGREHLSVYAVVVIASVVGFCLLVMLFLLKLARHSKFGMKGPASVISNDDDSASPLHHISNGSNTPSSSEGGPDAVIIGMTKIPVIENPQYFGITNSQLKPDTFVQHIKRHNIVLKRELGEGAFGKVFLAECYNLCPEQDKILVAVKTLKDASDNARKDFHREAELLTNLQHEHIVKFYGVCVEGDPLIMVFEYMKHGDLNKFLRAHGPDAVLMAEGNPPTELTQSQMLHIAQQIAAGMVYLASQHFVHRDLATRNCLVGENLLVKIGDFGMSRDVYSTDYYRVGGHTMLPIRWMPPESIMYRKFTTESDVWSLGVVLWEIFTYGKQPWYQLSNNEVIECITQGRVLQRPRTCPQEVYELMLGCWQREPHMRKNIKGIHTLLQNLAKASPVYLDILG
Chain of Serine/threonine-protein kinase Chk1 (O14757 whole entry): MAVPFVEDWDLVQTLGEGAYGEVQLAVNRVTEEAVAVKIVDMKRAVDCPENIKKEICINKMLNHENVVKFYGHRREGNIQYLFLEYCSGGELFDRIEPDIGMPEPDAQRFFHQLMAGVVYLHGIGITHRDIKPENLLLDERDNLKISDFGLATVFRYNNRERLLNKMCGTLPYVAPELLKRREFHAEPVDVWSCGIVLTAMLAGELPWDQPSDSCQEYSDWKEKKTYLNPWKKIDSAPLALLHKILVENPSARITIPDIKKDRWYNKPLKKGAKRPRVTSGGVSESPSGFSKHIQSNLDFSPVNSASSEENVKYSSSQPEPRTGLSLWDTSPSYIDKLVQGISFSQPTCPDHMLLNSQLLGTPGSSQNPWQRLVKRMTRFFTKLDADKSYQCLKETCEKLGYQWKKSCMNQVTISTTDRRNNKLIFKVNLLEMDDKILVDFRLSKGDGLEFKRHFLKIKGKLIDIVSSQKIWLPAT
Chain of Epidermal growth factor receptor (P00533 whole entry): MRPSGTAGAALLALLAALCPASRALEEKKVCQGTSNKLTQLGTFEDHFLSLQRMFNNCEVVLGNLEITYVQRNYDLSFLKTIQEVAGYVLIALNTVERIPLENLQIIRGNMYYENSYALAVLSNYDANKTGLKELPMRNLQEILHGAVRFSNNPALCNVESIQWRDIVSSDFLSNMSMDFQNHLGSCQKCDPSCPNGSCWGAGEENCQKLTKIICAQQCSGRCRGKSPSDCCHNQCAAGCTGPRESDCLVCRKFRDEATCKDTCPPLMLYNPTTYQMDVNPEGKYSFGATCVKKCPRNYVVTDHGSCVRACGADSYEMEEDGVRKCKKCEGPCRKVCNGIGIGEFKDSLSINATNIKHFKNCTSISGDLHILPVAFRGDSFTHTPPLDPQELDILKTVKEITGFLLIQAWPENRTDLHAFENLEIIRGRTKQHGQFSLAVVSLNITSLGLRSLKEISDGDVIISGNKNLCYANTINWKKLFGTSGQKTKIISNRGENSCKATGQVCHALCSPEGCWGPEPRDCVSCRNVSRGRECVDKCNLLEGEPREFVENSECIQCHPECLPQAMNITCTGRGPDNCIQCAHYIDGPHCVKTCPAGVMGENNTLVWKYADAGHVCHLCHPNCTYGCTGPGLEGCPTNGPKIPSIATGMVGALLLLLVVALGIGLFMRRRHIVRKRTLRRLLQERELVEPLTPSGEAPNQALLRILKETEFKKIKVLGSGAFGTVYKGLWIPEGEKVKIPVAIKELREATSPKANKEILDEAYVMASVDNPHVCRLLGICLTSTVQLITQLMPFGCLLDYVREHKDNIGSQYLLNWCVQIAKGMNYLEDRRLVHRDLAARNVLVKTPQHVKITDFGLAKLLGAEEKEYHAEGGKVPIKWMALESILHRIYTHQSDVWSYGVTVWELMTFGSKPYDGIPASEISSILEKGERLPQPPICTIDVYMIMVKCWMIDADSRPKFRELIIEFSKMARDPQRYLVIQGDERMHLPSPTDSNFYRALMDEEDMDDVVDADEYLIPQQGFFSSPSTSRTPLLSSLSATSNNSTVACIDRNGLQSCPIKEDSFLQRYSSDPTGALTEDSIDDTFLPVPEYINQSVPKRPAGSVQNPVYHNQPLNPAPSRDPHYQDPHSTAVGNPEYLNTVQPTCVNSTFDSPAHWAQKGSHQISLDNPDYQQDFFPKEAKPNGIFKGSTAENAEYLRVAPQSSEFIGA
Chain of CYP3A4 (P08684 whole entry): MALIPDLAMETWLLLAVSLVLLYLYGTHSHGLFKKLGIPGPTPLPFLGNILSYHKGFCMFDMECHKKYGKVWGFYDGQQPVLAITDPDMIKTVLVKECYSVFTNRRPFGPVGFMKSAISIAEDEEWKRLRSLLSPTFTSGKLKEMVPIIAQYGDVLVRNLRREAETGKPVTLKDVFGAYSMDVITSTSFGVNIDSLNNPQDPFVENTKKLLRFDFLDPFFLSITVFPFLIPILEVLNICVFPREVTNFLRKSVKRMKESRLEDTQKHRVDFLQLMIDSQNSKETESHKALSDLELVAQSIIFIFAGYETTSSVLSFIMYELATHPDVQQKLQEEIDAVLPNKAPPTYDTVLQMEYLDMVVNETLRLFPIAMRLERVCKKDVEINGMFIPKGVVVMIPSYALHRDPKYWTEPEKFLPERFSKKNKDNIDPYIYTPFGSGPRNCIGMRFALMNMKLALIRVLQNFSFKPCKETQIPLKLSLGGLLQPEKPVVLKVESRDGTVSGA
Chain of RAC-alpha serine/threonine-protein kinase (P31749 whole entry): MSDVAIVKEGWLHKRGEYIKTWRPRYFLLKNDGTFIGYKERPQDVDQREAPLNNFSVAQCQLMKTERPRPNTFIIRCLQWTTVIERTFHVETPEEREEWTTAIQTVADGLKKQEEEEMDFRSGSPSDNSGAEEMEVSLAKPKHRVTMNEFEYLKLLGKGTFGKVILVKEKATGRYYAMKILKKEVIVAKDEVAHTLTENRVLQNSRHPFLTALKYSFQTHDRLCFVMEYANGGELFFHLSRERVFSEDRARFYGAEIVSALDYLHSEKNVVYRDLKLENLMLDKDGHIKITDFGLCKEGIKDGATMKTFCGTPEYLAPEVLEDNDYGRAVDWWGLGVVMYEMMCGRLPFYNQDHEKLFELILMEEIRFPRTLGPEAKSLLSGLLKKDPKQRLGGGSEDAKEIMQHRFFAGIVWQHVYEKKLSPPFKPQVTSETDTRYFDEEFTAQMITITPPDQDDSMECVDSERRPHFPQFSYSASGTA

IC50 [1]: > 10 µM
IC50 [2]: > 10 µM
half-life [3]: 15.2 h
IC50 [4]: > 10 µM
bioavailability [5]: 38%
IC50 [6]: > 10 µM
IC50 [8]: 0.3 µM
IC50 [9]: 0.002 µM
IC50 [10]: > 10 µM
IC50 [12]: > 10 µM
IC50 [13]: 0.0012 µM
IC50 [15]: > 10 µM
AUC [17]: 5.95 µg·h/mL
IC50 [18]: 0.0028 µM
half-life [19]: 12.7 h
IC50 [20]: > 10 µM
IC50 [21]: > 10 µM
Cmax [22]: 0.581 µg/mL
Vd [23]: 0.587 L/kg
fold induction at 1 h, 1 µM (CYP3A4): 3
AUC [24]: 11 µg·h/mL
bioavailability [25]: 97.5%
half-life [27]: 7.49 h
Vd [28]: 1.69 L/kg
Cmax [29]: 0.763 µg/mL
clearance [30]: 0.0642 L/h/kg
IC50 [32]: > 10 µM
clearance [33]: 0.0888 L/h/kg
IC50 [35]: > 10 µM
IC50 (Insulin receptor): > 10 µM
IC50 [37]: > 1 µM
half-life [38]: 9.01 h
IC50 [39]: > 10 µM
IC50 [41]: > 10 µM
Compound: Cc1cc(C(=O)NC(C)(C)C)cc(C#Cc2ccc3c4c(oc3c2)C(C)(C)c2cc(NS(C)(=O)=O)ccc2C4=O)n1
Activity (NIH3T3 [7]): 72%
inhibition in vivo at 0.16 mg/kg (NIH3T3 [11]): 14%
inhibition in vivo at 10 mg/kg [14]: 171%
Activity [16]: Non-Toxic
inhibition in vivo at 0.63 mg/kg (NIH3T3 [26]): 16%
IC50 (NIH3T3 [31]): 0.0084 µM
inhibition in vivo at 10 mg/kg (NIH3T3 [34]): 105%
Activity (NIH3T3 [36]): 26%
inhibition in vivo at 2.5 mg/kg (NIH3T3 [40]): 102%
